# Assay results: patent publication US11147883B2, “Targeted delivery of drugs, therapeutic nucleic acids and functional nucleic acids to mammalian cells via intact killed bacterial cells” (EnGeneIC Molecular Delivery Pty Ltd, priority 2006, dated 2021)
# System: human breast cancer cells MDA-MB-468 xenograft
# Test: Human breast cancer MDA-MB-468 xenograft in nude mice, i.v. treatment, tumor volume
# Assay type: in vivo, Balb/c nu/nu mice
# Settings: i.v. doses on days 21, 28 and 34, 1×10^8 bacteria/dose or free Doxorubicin 7 mg/kg
# Method: An anti-EGFR monoclonal antibody was selected because the xenografted cells were human breast cancer cells MDA-MB-468 that are known to overexpress the EGF receptor on the cell surface.
# Human breast adenocarcinoma cells (MDA-MB-468, ATCC; human mammary epithelial cells; non-phagocytic) were grown in tissue culture to full confluency in T-75 flasks in RPMI 1640 medium supplemented with 5% Bovine Calf Serum (GIBCO-BRL Life Technologies, Invitrogen Corporation, Carlsbad, Calif., USA) and glutamine (Invitrogen) in a humidified atmosphere of 95% air and 5% CO2 at 37° C. 1×10^6 cells in 50 uL serum-free media together with 50 uL growth factor reduced matrigel (BD Biosciences, Franklin Lakes, N.J., USA) were injected subcutaneously between the shoulder blades of each mouse using a 23-gauge needle. The tumors were measured twice a week using an electronic digital caliper (Mitutoyo, Japan, precision to 0.001) and mean tumor volume was calculated using the formula, length (mm)×width^2 (mm)×0.5=volume (mm^3). 16 days post-implantation, the tumors reached volumes between 40 mm^3 and 70 mm^3, and mice were randomized to four different groups of five per group.
# The experiment was designed as follows. Group 1 (control) received an i.v. dose of 100 μl of sterile physiological saline. Group 2 (control) received an i.v. dose of free Doxorubicin (7 mg/kg of mouse body weight). […]
smiles,measurement,value
"COc1cccc2c1C(=O)c1c(O)c3c(c(O)c1C2=O)C[C@@](O)(C(=O)CO)C[C@@H]3O[C@H]1C[C@H](N)[C@H](O)[C@H](C)O1 [free doxorubicin, Doxorubicin]","anti-tumor effect (tumor volume, FIG. 1)",no anti-tumor effects
